# Like-named read-outs stand apart in the source and are kept apart here.
# Tests used:
# [1] = test system: malignant melanoma; assay: Phase I study, tumor response in malignant melanoma; format: in vivo, human; conditions: twelve patients
# Description: (§1) A response to this treatment process can be determined according to the criteria proposed by Macdonald et al., J. Clin. Oncol., 8:1277-1280 (1990). A complete response requires the disappearance of all enhancing tumor on consecutive CAT or MRI scans at least one month apart, off steroids, and that the patient be neurologically stable or improved. A partial response is defined as a greater or equal to 50 percent decrease in size (largest cross-sectional area) of enhancing tumor on consecutive CAT or MRI scans at least one month apart, steroids stable or reduced, and that the patient be neurologically stable or improved. All other tumor responses were designated as no response.
# (§2) The patients received continuous infusions of either 0.10, 0.15 or 0.20 mg/kg/day over seven day time periods in up to five monthly cycles. The patients with malignant astrocytomas received either 0.10 or 0.15 mg/kg/day; none receiving 0.20 mg/kg/day.
# (§3) The finally diluted solution was infused through central venus access using an infusion pump device (Pharmacia Deltec Cadd) for out-patients, or infused by usual venus infusion for in-patients.
# (§4) Each of the patients, except three (one renal cell carcinoma and two malignant melanoma) patients, had received a prior treatment. Each of the patients with malignant astrocytoma had been treated both surgically and with X-rays or by chemotherapy.
# [2] = test system: Erythroid progenitor cells; conditions: cultured marrow and blood cells from normal patients; cited from earlier work
# [3] = test system: neutrophils; conditions: chronic lymphocytic leukemia, serum levels less than 10 nM, in most cases; cited from earlier work
# [4] = test system: malignant astrocytoma; assay: Phase I study, tumor response in malignant astrocytoma; format: in vivo, human
# Description: as §1, §2, §3, §4
# [5] = test system: Primitive burst-forming unit-erythroid (pBFU-E) cells; conditions: read-out: IC50 (concentration required to inhibit 50 percent of growth); pBFU-E cells from normal patients; cited from earlier work
# [6] = test system: CML in blast crisis; conditions: cited from earlier work
# [7] = test system: granulocyte; conditions: hairy cell leukemia, cited from earlier work
# [8] = Phase I study, toxicity; format: in vivo, human
# Procedure: as §2, §3
# [9] = test system: Mature BFU-E (mBFU-E) cells; conditions: read-out: IC50 (concentration required to inhibit 50 percent of growth); mBFU-E cells from normal patients; cited from earlier work
# [10] = test system: granulocyte; assay: Clinical treatment of multiple sclerosis, granulocyte counts; format: in vivo, human; conditions: about 0.1 mg/kg/day, seven day courses of continuous infusion, after several courses
# [11] = test system: CFU-GM cells; conditions: 100 nM 2-CdA; cited from earlier work
# [12] = test system: renal cell carcinoma; assay: Phase I study, tumor response in renal cell carcinoma; format: in vivo, human; conditions: two patients
# Description: as §1, §2, §3, §4
# [13] = test system: neutrophils; conditions: cutaneous T cell lymphoma, 0.1 mg/kg per day over 7 days; cited from earlier work
# [14] = test system: Colony forming unit-granulocyte macrophage (CFU-GM) cells; conditions: read-out: IC50 (concentration required to inhibit 50 percent of growth); CFU-GM cells from normal patients; cited from earlier work
# [15] = test system: colony forming unit-erythroid (CFU-E) cells; conditions: read-out: IC50 (concentration required to inhibit 50 percent of growth); CFU-E cells from normal patients; cited from earlier work
compound,measurement,setting,value
"Nc1nc(Cl)nc2c1ncn2[C@H]1C[C@H](O)[C@@H](CO)O1 [2-CdA, 2-chloro-2'-deoxyadenosine]",patients with partial response,[1],None
same,sensitivity of erythroid progenitor cells to 2-CdA,[2],"dose-dependent sensitivity to 2-CdA, with that sensitivity decreasing as the stage of progenitor maturation increased"
same,neutrophil count,[3],increase in neutrophil count
same,duration of partial response,"[4]; patient No. 1, grade 2 astrocytoma, four cycles at 0.10 mg/kg/day",seven
same,coronal MRI of brain after treatment,"[4]; patient No. 1, intravenous contrast",resolution of tumor enhancement
same,axial spin echo MRI of brain after treatment,[4]; patient No. 12,complete regression of the edema and shrinkage of the cyst
same,cyst on sagittal T1-weighted imaging after treatment,[4]; patient No. 12,smaller in size and higher in signal intensity
same,sagittal T1-weighted imaging of brain after treatment,[4]; patient No. 12,"complete regression of the temporal lobe swelling, with restoration of a normal sulcal pattern"
same,duration of partial response,"[4]; patient No. 12, GBM, five cycles at 0.15 mg/kg/day",nine
same,responding patients (partial response),"[4]; two of seven malignant astrocytoma patients, 0.1 or 0.15 mg/kg/day",28.6%
same,median duration of partial response,[4]; two responding patients,eight
same,IC50,[5],19 nM
same,detectable tumor,[6]; another of two patients,loss of detectable tumor
same,blast count,[6]; one of two patients,decrease in blast count
same,granulocyte counts,[7]; transient neutropenia,under 500 per microliter
same,neutropenia,[7]; particularly acute in patients already neutropenic,transient neutropenia
same,myelosuppression per cycles,[8]; 0.10 mg/kg/day,1/18
same,myelosuppression per cycles,[8]; 0.15 mg/kg/day,5/22
same,myelosuppression per cycles,[8]; 0.20 mg/kg/day,3/4
same,"myelosuppression, dose dependence","[8]; 0.10, 0.15, 0.20 mg/kg/day",increased with dosage
same,principal toxic effect,[8]; all patients,Myelosuppression
same,"alopecia, nausea, vomiting, cardiopulmonary, renal or hepatic toxicity",[8]; any patient of the study,"No alopecia, nausea, vomiting, cardiopulmonary, renal or hepatic toxicity occurred"
same,myelosuppression in patients with previous biologic therapy,[8]; in vivo,all of the patients with previous biologic therapy treatment developed myelosuppression
same,patients with prior chemotherapy among those who developed myelosuppression,[8]; in vivo,five of eight
same,patients with prior chemotherapy among those without myelosuppression,[8]; in vivo,two of thirteen
same,patients with prior biologic therapies among those exhibiting myelosuppression,"[8]; interferon, interleukin-2, or lymphocyte-activated killer cells",Four of the eight
same,patients exhibiting myelosuppression,"[8]; malignant astrocytoma (GBM), seven patients",Two of the seven
same,patients exhibiting delayed neurotoxicities,"[8]; malignant melanoma with prior therapy, unknown whether directly from 2-CdA",Two
same,type of myelosuppression,"[8]; one astrocytoma patient with prior surgical and X-ray treatments, after the fifth cycle",both neutropenia and thrombocytopenia
same,"myelosuppression (grades 3 or 4 neutropenia or thrombocytopenia), frequency by pretreatment",[8]; prior exposure to systemic chemotherapy,more frequent in patients having had prior exposure to systemic chemotherapy
same,IC50,[9],38 nM
same,granulocyte counts,[10],substantially unchanged
same,reduction of growth of CFU-GM cells,[11],60%
same,patients with partial response,[12],None
same,resistance of neutrophils relative to monocytes and lymphocytes,[13],more resistant to 2-CdA than their monocytes and lymphocytes
same,IC50,[14],16 nM
same,IC50,[15],56 nM
